Read-outs that look alike come from different tables or passages of the source.
Tests used:
[1] = test system: T-Rex 293 cell line SC3 cells lacking increased expression of androgen receptor protein; experiment: Cellular growth inhibition, T-Rex 293 SC3 cells without doxycycline (CellTiter-Glo 2.0, 72 hours); type: cell-based; settings: T-Rex 293 SC3 cells not exposed to doxycycline (no increased androgen receptor expression)
T47D cells = experiment: Cellular growth inhibition assay for T47D cells (CellTiter-Glo 2.0, 72 hours); type: cell-based, human
Description: Exemplary compounds were tested for ability to inhibit the proliferation of T47D cells. T47D cells are a commercially available human breast cancer cell line.
T47D cells were purchased from American Type Cell Culture (ATCC Cat #HTB-133) and then seeded on poly-D-lysine coated, black clear-bottom 384-well plates at 3000/well in 25 μL Dulbecco's Modified Eagle Medium (DMEM) supplemented with 10% w/w Fetal bovine serum (FBS), 0.2 units/mL recombinant human insulin (Gibco Cat #12585014), and 1% w/w Pen-Strep. Pen-Strep is a commercially available mixture of penicillin G and streptomycin, which is used in mammalian cell culture media to prevent bacterial contamination. Dulbecco's Modified Eagle Medium (DMEM) supplemented with 10% w/w fetal bovine serum (FBS), 0.2 units/mL recombinant human insulin, and 1% w/w Pen-Strep is herein referred to as Treatment Medium. Following seeding of cells in the plates, the plates were spun at 300×g for 30 seconds, then equilibrated to room temperature for 30 minutes, and then deposited in a humidified tissue culture incubator maintained at 37° C. with 5% CO2.
At 24 hours after seeding of the cells, dilutions of test compound were prepared in DMSO and dissolved in Treatment Medium, to achieve a final DMSO concentration of 0.5% w/w, thereby providing the Test Compound Solution. A 25 μL aliquot of the Test Compound Solution was added to cells in the well plates. An equal volume of a solution containing DMSO and Treatment Medium was used as a negative control. Following treatment of cells with Test Compound Solution or said equal volume of a solution containing DMSO and Treatment Medium, the plates were spun at 300×g for 30 seconds, and then left in an incubator for 72 hours.
At the end of the treatment duration, cell viability was quantified with CellTiter-Glo 2.0 reagent (Promega Cat #G9243). For this purpose, plates were equilibrated to room temperature for 30 minutes, and then 25 μL of CellTiter-Glo 2.0 reagent was added to cells in the plate wells. Plates were then agitated on a shaker for two minutes at 500 rpm and subsequently incubated at room temperature for 10 minutes. Following incubation, the plates were spun at 3000×g for 30 seconds, then sealed with an optical adhesive cover, and luminescence readings were measured with an En Vision Plate Reader (Perkin Elmer).
Data was normalized using zero luminescence for baseline. A four-parameter non-linear regression curve fit was applied to dose-response data in GraphPad Prism data analysis software to determine the half-maximal growth inhibitory concentration (GI50) for each test compound.

VCaP cells = experiment: Cellular growth inhibition assay for VCaP cells (CellTiter-Glo 2.0, 72 hours); type: cell-based, human; settings: for GI50: CellTiter-Glo 2.0; for Ratio of GI50's: GI50 of the top compound in the pair divided by GI50 of the lower compound
[2] = test system: T-Rex 293 cell line SC3 cells having increased expression of androgen receptor protein due to exposure to doxycycline; experiment: Cellular growth inhibition, T-Rex 293 SC3 cells with doxycycline-induced androgen receptor (CellTiter-Glo 2.0, 72 hours); type: cell-based; settings: for GI50: T-Rex 293 SC3 cells with 10 ng/ml doxycycline (increased androgen receptor expression), 72 hours, CellTiter-Glo 2.0; for Ratio of GI50's: GI50 of the top compound in the pair divided by GI50 of the lower compound, T-Rex 293 SC3 cells with doxycycline-induced androgen receptor
[3] = Stability analysis of Crystal Form A and Crystal Form B in solvent suspensions (XRPD); type: physicochemical; settings: suspensions in EtOH, Acetone, Acetonitrile, THF/Heptane at 25° C. and 50° C. for 1 week
Description: The obtained suspensions were stirred at 25° C. and 50° C. for 1 week, respectively. Solid parts (wet cakes) were isolated by centrifugation filtration at […] temperature and investigated by XRPD.

GI50 (T47D cells; Homo sapiens, T47D, 72 h) | GI50 (VCaP cells; Homo sapiens, VCaP, 72 h) | SMILES | GI50 [2] | GI50 ([1]; 72 h) | other results
< 500 nM |  | COc1cc(O[C@H]2C(C)(C)[C@H](NC(=O)c3ccc(N4CCC5(CC4)CC(Cc4ccc(C6=N[C@@H](C)c7nnc(C)n7-c7sc(C)c(C)c76)cc4)C5)nc3)C2(C)C)ccc1C#N [II-6] |  |  | 
< 500 nM | < 500 nM | COc1cc(O[C@H]2C(C)(C)[C@H](NC(=O)c3cnc(N4CCC5(CC4)CC(Cc4ccc(C6=N[C@@H](Cc7ncco7)c7nnc(C)n7-c7sc(C)c(C)c76)cc4)C5)nc3)C2(C)C)ccc1C#N [II-10, N-[3-(4-cyano-3-methoxy-phenoxy)-2,2,4,4-tetramethyl-cyclobutyl]-2-[2-[[4-[(9S)-4,5,13-trimethyl-9-(oxazol-2-ylmethyl)-3-thia-1,8,11,12-tetrazatricyclo[8.3.0.0^2,6]trideca-2 (6),4,7,10,12-pentaen-7-yl]phenyl]methyl]-7-azaspiro[3.5]nonan-7-yl]pyrimidine-5-carboxamide] | < 500 nM | 500 to 1500 nM | Ratio of GI50's (VCaP cells): 1; Ratio of GI50's [2]: 1
< 500 nM | < 500 nM | COc1cc(O[C@H]2C(C)(C)[C@H](NC(=O)c3cnc(N4CCC5(CCN(c6ccc(C7=N[C@@H](C)c8nnc(C)n8-c8sc(C)c(C)c87)cc6)CC5)C4)nc3)C2(C)C)ccc1C#N [II-4, N-[3-(4-cyano-3-methoxy-phenoxy)-2,2,4,4-tetramethyl-cyclobutyl]-2-[8-[4-[(9S)-4,5,9,13-tetramethyl-3-thia-1,8,11,12-tetrazatricyclo[8.3.0.0^2,6]trideca-2 (6),4,7,10,12-pentaen-7-yl]phenyl]-2,8-diazaspiro[4.5]decan-2-yl]pyrimidine-5-carboxamide] | < 500 nM | < 500 nM | 
< 500 nM | 1500 to 3000 nM | COc1cc(O[C@H]2C(C)(C)[C@H](NC(=O)c3cnc(N4CCC5(CCC(c6ccc(C7=N[C@@H](C)c8nnc(C)n8-c8sc(C)c(C)c87)cc6)CC5)C4)nc3)C2(C)C)ccc1C#N [II-7] | < 500 nM | < 500 nM | 
< 500 nM | < 500 nM | COc1cc(O[C@H]2C(C)(C)[C@H](NC(=O)c3cnc(N4CCC5(CCC(c6ccc(C7=N[C@@H](Cc8ncco8)c8nnc(C)n8-c8sc(C)c(C)c87)cc6)CC5)C4)nc3)C2(C)C)ccc1C#N [II-11, N-[(1r,3r)-3-(4-cyano-3-methoxy-phenoxy)-2,2,4,4-tetramethyl-cyclobutyl]-2-[8-[4-[(9S)-4,5,13-trimethyl-9-(oxazol-2-ylmethyl)-3-thia-1,8,11,12-tetrazatricyclo[8.3.0.0^2,6]trideca-2 (6),4,7,10,12-pentaen-7-yl]phenyl]-2-azaspiro[4.5]decan-2-yl]pyrimidine-5-carboxamide] | < 500 nM | < 500 nM | 

Further lines, the molecule ahead of its results:

SMILES | GI50 (T47D cells; Homo sapiens, T47D, 72 h) | GI50 (VCaP cells; Homo sapiens, VCaP, 72 h) | GI50 [2] | GI50 ([1]; 72 h) | other results
COc1cc(O[C@H]2CC[C@H](NC(=O)c3ccc(N4CCC5(CN(c6ccc(C7=N[C@@H](C)c8nnc(C)n8-c8sc(C)c(C)c87)cc6)CC5(F)F)C4)nn3)CC2)ccc1C#N (stereo partly drawn) [Compound I-104] |  |  | < 500 nM |  | GI50 [1]: 500 to 1500 nM; GI50 (T47D cells): 1500 to 3000 nM; GI50 (VCaP cells; 72 hours): 500 to 1500 nM
COc1cc(O[C@H]2C(C)(C)[C@H](NC(=O)c3cnc(N4CCC5(CCC(c6ccc(C7=N[C@@H](Cc8ncco8)c8nnc(C)n8-c8sc(C)c(C)c87)cc6)CC5)C4)nc3)C2(C)C)ccc1C#N [II-12] |  |  | < 500 nM |  | GI50 [1]: < 500 nM; GI50 (T47D cells): < 500 nM; GI50 (VCaP cells; 72 hours): < 500 nM; Ratio of GI50's (VCaP cells): 1; Ratio of GI50's [2]: 1
COc1cc(O[C@H]2CC[C@H](NC(=O)c3ccc(N4CCC5(CN(c6ccc(C7=N[C@@H](C)c8nnc(C)n8-c8sc(C)c(C)c87)cc6)CC5(F)F)C4)nn3)CC2)ccc1C#N (stereo partly drawn) [Compound I-103] |  | 500 to 1500 nM | < 500 nM | < 500 nM | GI50 (T47D cells): 500 to 1500 nM
Cc1sc2c(c1C)C(c1ccc(CC3CC4(CCN(c5ncc(C(=O)N[C@H]6C(C)(C)[C@H](Oc7ccc(C#N)c(OC(F)(F)F)c7)C6(C)C)cn5)CC4)C3)cc1)=N[C@@H](Cc1ncco1)c1nnc(C)n1-2 [II-1, N-[3-[4-cyano-3-(trifluoromethoxy)phenoxy]-2,2,4,4-tetramethyl-cyclobutyl]-2-[2-[[4-[(9S)-4,5,13-trimethyl-9-(oxazol-2-ylmethyl)-3-thia-1,8,11,12-tetrazatricyclo[8.3.0.0^2,6]trideca-2 (6),4,7,10,12-pentaen-7-yl]phenyl]methyl]-7-azaspiro[3.5]nonan-7-yl]pyrimidine-5-carboxamide] | < 500 nM | > 3000 nM | < 500 nM | < 500 nM | 
COc1cc(O[C@H]2C(C)(C)[C@H](NC(=O)c3cnc(N4CCC5(CCC(c6ccc(C7=N[C@@H](C)c8nnc(C)n8-c8sc(C)c(C)c87)cc6)CC5)C4)nc3)C2(C)C)ccc1C#N [II-8] |  |  |  |  | GI50 (T47D cells): 500 to 1500 nM
COc1cc(O[C@H]2C(C)(C)[C@H](NC(=O)c3cnc(N4CCC(CC5CN(c6ccc(C7=N[C@@H](C)c8nnc(C)n8-c8sc(C)c(C)c87)cc6)C5)CC4)nc3)C2(C)C)ccc1C#N [II-3] | < 500 nM |  |  |  | 
Cc1sc2c(c1C)C(c1ccc(OC3CC4(CCN(c5ncc(C(=O)N[C@H]6C(C)(C)[C@H](Oc7ccc(C#N)c(OC(F)(F)F)c7)C6(C)C)cn5)CC4)C3)cc1)=N[C@@H](Cc1ncco1)c1nnc(C)n1-2 [II-2] | < 500 nM |  |  |  | 
COc1cc(O[C@H]2CC[C@H](NC(=O)c3ncc(N4CCC5(CCC(c6ccc(C7=N[C@@H](C)c8nnc(C)n8-c8sc(C)c(C)c87)cc6)CC5)C4)cn3)CC2)ccc1C#N (stereo partly drawn) [Compound I-102] | < 500 nM | < 500 nM | < 500 nM | < 500 nM | 
COc1cc(O[C@H]2C(C)(C)[C@H](NC(=O)c3cnc(N4CCC5(CC4)CC(Oc4ccc(C6=N[C@@H](Cc7ncco7)c7nnc(C)n7-c7sc(C)c(C)c76)cc4)C5)nc3)C2(C)C)ccc1C#N [Compound II-5 in Crystal Form B, N-[(1r,3r)-3-(4-cyano-3-methoxy-phenoxy)-2,2,4,4-tetramethyl-cyclobutyl]-2-[2-[4-[(9S)-4,5,13-trimethyl-9-(oxazol-2-ylmethyl)-3-thia-1,8,11,12-tetrazatricyclo[8.3.0.0^2,6]trideca-2 (6),4,7,10,12-pentaen-7-yl]phenoxy]-7-azaspiro[3.5]nonan-7-yl]pyrimidine-5-carboxamide Crystal Form B] |  |  |  |  | relative stability of crystal forms [3]: converted to Compound II-5 in Crystal Form A
